Laboratory results: paper PMC8624998, “Synthesis and Antiproliferative Evaluation of 3-Chloroazetidin-2-ones with Antimitotic Activity: Heterocyclic Bridged Analogues of Combretastatin A-4” (Pharmaceuticals, 2021)
Where two headings read alike, the source gives them in different places. Marks after values point to notes of the source that are not given here.

Key:
[1] = system: MCF-7 cells; assay: Cell viability assay (MTT/AlamarBlue), antiproliferative activity; assay type: cell-based, human; conditions: for IC50: Homo sapiens, MCF7, 72 h, read-out: IC50 (MCF-7, 72 h)
Excerpt: […]. The introduction of the halogen substituent at C-3 was examined in an effort to investigate the effect on the activity of this substituent, and subsequently optimising the cytotoxic effects against MCF-7 human breast cancer cells.
The human breast carcinoma cell line MCF-7 was purchased from the European Collection of Animal Cell Cultures (ECACC). Triple negative breast cancer Hs578T cells and its invasive variant Hs578Ts(i)8 were a kind gift from Dr. Susan McDonnell, School of Chemical and Bioprocess Engineering, University College Dublin. U266 cells were a gift from Dr. Tony McElligott, School of Medicine, St James’s Hospital, Trinity College Dublin. HT-29 cells were purchased from the European Collection of Cell Cultures (originating from a human adenocarcinoma of the colon). The human breast carcinoma cell line MDA-MB-231 and the HL-60 cells derived from a patient with acute myeloid leukaemia were both obtained from ECACC (Salisbury, UK). The SW-480 cells were a kind gift from Dr. Brian Flood, School of Biochemistry and Immunology, Trinity College Dublin. HEK-293T (normal epithelial embryonic kidney cells) were cultured in Dulbecco’s Modified Eagle’s Medium (DMEM) with GlutaMAXTM-I in the absence of non-essential amino acids. Human breast cancer MCF-7 cells and multiple myeloma U266 cells were cultured in Minimum Essential Media (MEM) with GlutaMAX™-I, supplemented with 1% (v/v) non-essential amino acids, 10% 2(v/v) foetal bovine serum (FBS) and 1% (v/v) penicillin/streptomycin 5000 U/mL. MDA-MB-231 cells were maintained in DMEM supplemented with 10% (v/v) foetal bovine serum, 2 mM L-glutamine and 100 μg/mL penicillin/streptomycin (complete medium). Colon cancer HT-29 and SW-480 and triple negative breast cancer Hs578T and its invasive variant Hs578T8i were cultured in DMEM with GlutaMAX™-I, with the same supplement in the absence of non-essential amino acids. Leukaemia HL-60 cancer cells were cultured in Roswell Park Memorial Institute Media (RPMI-1640) with GlutaMAX™-I, supplemented with 10% FCS media, and 100 μg/mL penicillin/streptomycin as above. Cell numbers were monitored using a haemocytometer. Cell culture flasks were incubated in a humidified incubator (5% CO2/95% air) at 37 °C. All cell lines were sub-cultured three times per week with trypsinisation using TrypLE Express (1X) required for adherent cell lines.
. All stock solutions and serial dilution in ethanol/DMSO were stored at -20 °C. All cells were seeded at a density of 2.5 × 10^4 cells/mL in a 96-well plate (200 μL per well). The cells were incubated in a […] atmosphere at 37 °C for 24 h, then treated with test compound (2 μL of stock solutions per 200-microlitre well) in ethanol to obtain a concentration range of 1 nM–200 μM for the study. The plates were then re-incubated for a further 72 h. Control wells contained an equivalent volume of the vehicle ethanol or DMSO (1% v/v). MTT cell viability assay: The culture medium was removed, and the cells were washed with phosphate buffered saline (PBS, […]). MTT (dissolved in PBS, […]) was added to obtain a final concentration of MTT (1 mg/mL). Cells were incubated at 37 °C for 3 h in the dark. Solubilisation was commenced by the addition of DMSO ([…]) and the cells were maintained at 20 °C in the dark for 20 min before reading the absorbance to ensure complete colour diffusion. The absorbance value of control cells (no added compound) was set to 100% cell viability and absorbance versus cell density per well was determined to assess cell viability using Graph-Pad Prism software. AlamarBlue cell viability assay: Cells were seeded in 96-well plates (e.g., MCF-7, 5 × 10^3 cells/well) and (HT-29 cells, 1 × 10^3 cells/well) and (HL-60 cells, 1 × 10^4 cells/well) with a total volume per well of 200 µL. After 24 h, cells were treated in triplicate with serial dilutions of CA-4 or β-lactam analogues (0.001–100 μM), medium alone or vehicle (1% ethanol (v/v)). […]

| SMILES | IC50 ([1]; MCF-7, 72 h) | melting point | inhibition of cell viability at a concentration of 10 μM ([1]; MCF-7, 72 h) | IC50 [1] |
| --- | --- | --- | --- | --- |
| COc1ccc([C@@H]2[C@H](Cl)C(=O)N2c2cc(OC)c(OC)c(OC)c2)cc1 (relative stereo) [Compound 10e cis, Cis-3-chloro-1-(3,4,5-trimethoxyphenyl)-4-(4-methoxyphenyl) azetidin-2-one] | 0.317 ± 0.04 µM | – | – | – |
| COc1cc(N2C(=O)C(Cl)C2c2ccccc2)cc(OC)c1OC (stereo not shown) [Compound 10a, 3-Chloro-1-(3,4,5-trimethoxyphenyl)-4-phenylazetidin-2-one] | 23.4 ± 2.8 µM | – | – | – |
| COc1cc(N2C(=O)C(Cl)C2c2ccc(Cl)cc2)cc(OC)c1OC (stereo not shown) [Compound 10b, 3-Chloro-4-(4-chlorophenyl)-1-(3,4,5-trimethoxyphenyl)azetidin-2-one] | 1.3 ± 0.17 µM | – | – | – |
| COc1cc(N2C(=O)C(Cl)C2c2ccc(Br)cc2)cc(OC)c1OC (stereo not shown) [Compound 10c, 4-(4-Bromophenyl)-3-chloro-1-(3,4,5-trimethoxyphenyl)azetidin-2-one] | 0.506 ± 0.11 µM | – | – | – |
| COc1cc(N2C(=O)C(Cl)C2c2ccc([N+](=O)[O-])cc2)cc(OC)c1OC (stereo not shown) [Compound 10d, 3-Chloro-1-(3,4,5-trimethoxyphenyl)-4-(4-nitrophenyl)azetidin-2-one] | 4.37 ± 0.61 µM | – | – | – |
| COc1cc(N2C(=O)C(Cl)C2c2ccc(Oc3ccccc3)cc2)cc(OC)c1OC (stereo not shown) [Compound 10g, 3-Chloro-1-(3,4,5-trimethoxyphenyl)-4-(4-phenoxyphenyl)azetidin-2-one] | 64.1 ± 7.3 µM | – | – | – |
| COc1cc(N2C(=O)C(Cl)C2c2ccc(OCc3ccccc3)cc2)cc(OC)c1OC (stereo not shown) [Compound 10h, 4-(4-Benzyloxyphenyl)-3-chloro-1-(3,4,5-trimethoxyphenyl)azetidin-2-one] | 59.9 ± 6.99 µM | 96 to 98 °C | – | – |
| COc1ccc(C2C(Cl)C(=O)N2c2cc(OC)c(OC)c(OC)c2)cc1[N+](=O)[O-] (stereo not shown) [Compound 10m, 3-Chloro-4-(4-methoxy-3-nitrophenyl)-1-(3,4,5-trimethoxyphenyl) azetidin-2-one] | 3.09 ± 0.41 µM | 93 to 95 °C | – | – |
| COc1cc(N2C(=O)C(Cl)(Cl)C2c2ccccc2)cc(OC)c1OC (stereo not shown) [Compound 11a, 3,3-Dichloro-1-(3,4,5-trimethoxyphenyl)-4-phenylazetidin-2-one] | 37.2 ± 3.21 µM | 80 to 81 °C | – | – |
| COc1cc(N2C(=O)C(Cl)(Cl)C2c2ccc(Cl)cc2)cc(OC)c1OC (stereo not shown) [Compound 11b, 3,3-Dichloro-4-(4-chlorophenyl)-1-(3,4,5-trimethoxyphenyl)azetidin-2-one] | 12.8 ± 1.08 µM | 150 to 153 °C | – | – |
| COc1cc(N2C(=O)C(Cl)(Cl)C2c2ccc(Br)cc2)cc(OC)c1OC (stereo not shown) [Compound 11c, 4-(4-Bromophenyl)-3,3-dichloro-1-(3,4,5-trimethoxyphenyl)azetidin-2-one] | 18.2 ± 1.83 µM | 150 to 152 °C | – | – |
| COc1cc(N2C(=O)C(Cl)(Cl)C2c2ccc([N+](=O)[O-])cc2)cc(OC)c1OC (stereo not shown) [Compound 11d, 3,3-Dichloro-1-(3,4,5-trimethoxyphenyl)-4-(4-nitrophenyl)azetidin-2-one] | 61.6 ± 7.61 µM | 116 to 118 °C | – | – |
| COc1cc(N2C(=O)C(Cl)(Cl)C2c2ccc(Oc3ccccc3)cc2)cc(OC)c1OC (stereo not shown) [Compound 11g, 3,3-Dichloro-1-(3,4,5-trimethoxyphenyl)-4-(4-phenoxyphenyl)azetidin-2-one] | 62.3 ± 10.2 µM | 82 to 84 °C | – | – |
| COc1cc(N2C(=O)C(Cl)(Cl)C2c2ccc(OCc3ccccc3)cc2)cc(OC)c1OC (stereo not shown) [Compound 11h, 4-(4-Benzyloxyphenyl)-3,3-dichloro-1-(3,4,5-trimethoxyphenyl) azetidin-2-one] | 36.3 ± 3.68 µM | – | – | – |
| COc1cc(N2C(=O)C(Cl)(Cl)C2c2cccc3ccccc23)cc(OC)c1OC (stereo not shown) [Compound 11j, 3,3-Dichloro-1-(3,4,5-trimethoxyphenyl)-4-(naphthalen-1-yl)azetidin-2-one] | 7.99 ± 0.7 µM | 146 to 148 °C | – | – |
| COc1cc(N2C(=O)C(Cl)(Cl)C2c2ccc3ccccc3c2)cc(OC)c1OC (stereo not shown) [Compound 11k, 3,3-Dichloro-1-(3,4,5-trimethoxyphenyl)-4-(naphthalen-2-yl)azetidin-2-one] | 0.322 ± 0.04 µM | 164 to 166 °C | – | – |
| COc1ccc(C2N(c3cc(OC)c(OC)c(OC)c3)C(=O)C2(Cl)Cl)cc1[N+](=O)[O-] (stereo not shown) [Compound 11m, 3,3-Dichloro-4-(4-methoxy-3-nitrophenyl)-1-(3,4,5-trimethoxyphenyl) azetidin-2-one] | 0.353 ± 0.04 µM | 117 to 119 °C | – | – |
| COc1ccc(N2C(=O)C(Cl)C2c2cc(OC)c(OC)c(OC)c2)cc1 (stereo not shown) [Compound 12a, 3-Chloro-1-(4-methoxyphenyl)-4-(3,4,5-trimethoxyphenyl)azetidin-2-one] | 14.8 ± 1.58 µM | 101 to 102 °C | – | – |
| CCOc1ccc(N2C(=O)C(Cl)C2c2cc(OC)c(OC)c(OC)c2)cc1 (stereo not shown) [Compound 12b, 3-Chloro-1-(4-ethoxyphenyl)-4-(3,4,5-trimethoxyphenyl)azetidin-2-one] | – | 113 to 115 °C | 25% (10 μM) ^c | – |
| COc1cc(C2C(Cl)C(=O)N2c2ccc(SC)cc2)cc(OC)c1OC (stereo not shown) [Compound 12c, 3-Chloro-1-(4-(methylthio)phenyl)-4-(3,4,5-trimethoxyphenyl) azetidin-2-one] | – | 101 to 103 °C | 10% (10 μM) ^c | – |
| COc1ccc(N2C(=O)C(Cl)(Cl)C2c2cc(OC)c(OC)c(OC)c2)cc1 (stereo not shown) [Compound 13a, 3,3-Dichloro-4-(3,4,5-trimethoxyphenyl)-1-(4-methoxyphenyl)azetidin-2-one] | 45.9 ± 6.73 µM | 64 to 66 °C | – | – |
| COc1ccc(C2N(c3cc(OC)cc(OC)c3)C(=O)C2(Cl)Cl)cc1 (stereo not shown) [Compound 15a, 3,3-Dichloro-1-(3,5-dimethoxyphenyl)-4-(4-methoxyphenyl)azetidin-2-one] | 6.61 ± 2 µM | – | – | – |
| CCOc1ccc(C2N(c3cc(OC)cc(OC)c3)C(=O)C2(Cl)Cl)cc1 (stereo not shown) [Compound 15b, 3,3-Dichloro-1-(3,5-dimethoxyphenyl)-4-(4-ethoxyphenyl)azetidin-2-one] | 0.273 ± 0.01 µM | – | – | – |
| COc1cc(N2C(=O)C(Br)C2c2ccc(SC)cc2)cc(OC)c1OC (stereo not shown) [Compound 16c, 3-Bromo-4-(4-(methylthio)phenyl)-1-(3,4,5-trimethoxyphenyl)azetidin-2-one] | 0.613 ± 0.04 µM | – | – | – |
| COc1ccc(C2C(Br)C(=O)N2c2cc(OC)c(OC)c(OC)c2)cc1C (stereo not shown) [Compound 16e, 3-Bromo-4-(4-methoxy-3-methylphenyl)-1-(3,4,5-trimethoxyphenyl) azetidin-2-one] | 0.525 ± 0.03 µM | – | – | – |
| COc1ccc(C2C(Br)C(=O)N2c2cc(OC)c(OC)c(OC)c2)cc1F (stereo not shown) [Compound 16f, 3-Bromo-4-(3-fluoro-4-methoxyphenyl)-1-(3,4,5-trimethoxyphenyl) azetidin-2-one] | 0.39 ± 0.03 µM | – | – | – |
| COc1ccc(C2C(Br)C(=O)N2c2cc(OC)c(OC)c(OC)c2)cc1Cl (stereo not shown) [Compound 16g, 3-Bromo-4-(3-chloro-4-methoxyphenyl)-1-(3,4,5-trimethoxyphenyl) azetidin-2-one] | 0.472 ± 0.2 µM | – | – | – |
| COc1ccc(C2C(Br)C(=O)N2c2cc(OC)c(OC)c(OC)c2)cc1Br (stereo not shown) [Compound 16h, 3-Bromo-4-(3-bromo-4-methoxyphenyl)-1-(3,4,5-trimethoxyphenyl) azetidin-2-one] | 0.62 ± 0.04 µM | – | – | – |
| COc1ccc(C2N(c3cc(OC)c(OC)c(OC)c3)C(=O)C2(Cl)Cl)cc1OP(=O)(O)O (stereo not shown) [Compound 18, 5-(3,3-Dichloro-1-(3,4,5-trimethoxyphenyl)-4-oxoazetidin-2-yl)-2-methoxyphenyl dihydrogen phosphate] | – | – | – | 0.077 ± 0.01 µM |
